Results as given in ChEMBL document CHEMBL3885881, “DrugMatrix”.

Species on record: Rattus norvegicus
Assay: DrugMatrix - Regimen: Daily Repeat
Type: toxicity, organism-based, Sprague-Dawley
Set-up: regimen Daily Repeat, gender Male, age 6-8 weeks
Settings: in vivo, po, route oral GAVAGE, vehicle .5 % CMC; for BASOPHIL / EOSINOPHIL / ERYTHROCYTE COUNT / HEMATOCRIT / HEMOGLOBIN / LEUKOCYTE COUNT / LYMPHOCYTE / MEAN CORPUSCULAR HEMOGLOBIN / MEAN CORPUSCULAR HEMOGLOBIN CONCENTRATION / MEAN CORPUSCULAR VOLUME / MONOCYTE / NEUTROPHIL / PLATELET COUNT: tissue Blood; for ALANINE AMINOTRANSFERASE / ALBUMIN / ALKALINE PHOSPHATASE / ASPARTATE AMINOTRANSFERASE / BLOOD UREA NITROGEN / CHLORIDE / CHOLESTEROL / CREATINE PHOSPHOKINASE / CREATININE / GLUCOSE / PHOSPHORUS / POTASSIUM / SODIUM / TOTAL PROTEIN: tissue Plasma
[1] = 0 mg/kg, 72 h, dose level Control, time 3 day
[2] = 0 mg/kg, 120 h, dose level Control, time 5 day
[3] = 3 mg/kg, 72 h, dose level Low, time 3 day

`CN1CCC(=C2c3ccccc3C=Cc3ccccc32)CC1` [CYPROHEPTADINE] was tested, and the BASOPHIL [1] was 0%, the EOSINOPHIL [1] was 0.33% and the “ERYTHROCYTE COUNT” value [1] was 6.03 x10E6/uL. For the same compound, the HEMATOCRIT [1] was 38.8%, the HEMOGLOBIN [1] was 14.26 G/DL and the “LEUKOCYTE COUNT” value [1] was 10.64 x10E3/uL. For the same compound, the LYMPHOCYTE [1] was 83.33%, the “MEAN CORPUSCULAR HEMOGLOBIN” value [1] was 23.64 pg and the “MEAN CORPUSCULAR HEMOGLOBIN CONCENTRATION” value [1] was 36.74 G/DL. For the same compound, the “MEAN CORPUSCULAR VOLUME” value [1] was 64.32 fL, the MONOCYTE [1] was 3.33% and the NEUTROPHIL [1] was 13%. The “PLATELET COUNT” value [1] was 1264.4 x10E3/uL, the “ALANINE AMINOTRANSFERASE” value [1] was 38.83 u/L and the ALBUMIN [1] was 3.55 G/DL. For the same compound, the “ALKALINE PHOSPHATASE” value [1] was 368.33 u/L, the “ASPARTATE AMINOTRANSFERASE” value [1] was 66.17 u/L and the “BLOOD UREA NITROGEN” value [1] was 15.67 mg/dL. For the same compound, the CHLORIDE [1] was 104.33 MEQ/L, the CHOLESTEROL [1] was 76.5 mg/dL and the “CREATINE PHOSPHOKINASE” value [1] was 166.83 u/L. The CREATININE [1] was 0.52 mg/dL, the GLUCOSE [1] was 173.17 mg/dL and the PHOSPHORUS [1] was 11.68 mg/dL. The POTASSIUM [1] was 6.43 MEQ/L, the SODIUM [1] was 149.5 MEQ/L and the “TOTAL PROTEIN” value [1] was 5.93 G/DL. The BASOPHIL [2] was 0%, the EOSINOPHIL [2] was 0% and the “ERYTHROCYTE COUNT” value [2] was 5.88 x10E6/uL. For the same compound, the HEMATOCRIT [2] was 37.87%, the HEMOGLOBIN [2] was 14.48 G/DL and the “LEUKOCYTE COUNT” value [2] was 12.43 x10E3/uL. For the same compound, the LYMPHOCYTE [2] was 84.17%, the “MEAN CORPUSCULAR HEMOGLOBIN” value [2] was 24.65 pg and the “MEAN CORPUSCULAR HEMOGLOBIN CONCENTRATION” value [2] was 38.25 G/DL. For the same compound, the “MEAN CORPUSCULAR VOLUME” value [2] was 64.47 fL, the MONOCYTE [2] was 4.33% and the NEUTROPHIL [2] was 11.5%. The “PLATELET COUNT” value [2] was 1182.33 x10E3/uL, the “ALANINE AMINOTRANSFERASE” value [2] was 38.67 u/L and the ALBUMIN [2] was 3.55 G/DL. The “ALKALINE PHOSPHATASE” value [2] was 342.5 u/L, the “ASPARTATE AMINOTRANSFERASE” value [2] was 63.33 u/L and the “BLOOD UREA NITROGEN” value [2] was 15.5 mg/dL. The CHLORIDE [2] was 104 MEQ/L, the CHOLESTEROL [2] was 75.5 mg/dL and the “CREATINE PHOSPHOKINASE” value [2] was 142.5 u/L. The CREATININE [2] was 0.62 mg/dL, the GLUCOSE [2] was 165.17 mg/dL and the PHOSPHORUS [2] was 10.87 mg/dL. The POTASSIUM [2] was 6.85 MEQ/L, the SODIUM [2] was 150.17 MEQ/L and the “TOTAL PROTEIN” value [2] was 5.93 G/DL. For the same compound, the BASOPHIL [3] was 0%, the EOSINOPHIL [3] was 0% and the “ERYTHROCYTE COUNT” value [3] was 6.1 x10E6/uL. The HEMATOCRIT [3] was 40.23%, the HEMOGLOBIN [3] was 15.13 G/DL and the “LEUKOCYTE COUNT” value [3] was 11.03 x10E3/uL. The LYMPHOCYTE [3] was 89.33%, the “MEAN CORPUSCULAR HEMOGLOBIN” value [3] was 24.8 pg and the “MEAN CORPUSCULAR HEMOGLOBIN CONCENTRATION” value [3] was 37.63 G/DL. For the same compound, the “MEAN CORPUSCULAR VOLUME” value [3] was 65.97 fL, the MONOCYTE [3] was 1% and the NEUTROPHIL [3] was 9.67%. For the same compound, the “PLATELET COUNT” value [3] was 1191.33 x10E3/uL, the “ALANINE AMINOTRANSFERASE” value [3] was 32.67 u/L and the ALBUMIN [3] was 3.6 G/DL. The “ALKALINE PHOSPHATASE” value [3] was 369 u/L, the “ASPARTATE AMINOTRANSFERASE” value [3] was 58 u/L and the “BLOOD UREA NITROGEN” value [3] was 13.33 mg/dL. The CHLORIDE [3] was 105.67 MEQ/L, the CHOLESTEROL [3] was 75.67 mg/dL and the “CREATINE PHOSPHOKINASE” value [3] was 139.67 u/L. For the same compound, the CREATININE [3] was 0.47 mg/dL, the GLUCOSE [3] was 159 mg/dL and the PHOSPHORUS [3] was 11.23 mg/dL. For the same compound, the POTASSIUM [3] was 6.9 MEQ/L, the SODIUM [3] was 151.33 MEQ/L and the “TOTAL PROTEIN” value [3] was 5.8 G/DL.
